From patent US20180318311A1, “TRICYCLIC 2-QUINOLINONES AS ANTIBACTERIALS” (priority 2017, published 2018)
Converted amounts (≈) assume the structure as drawn. Where a name gives a salt, the structure may show the parent alone.

Legend:
Assay type in all cases: cell-based
[1] = test system: S. aureus ATCC 49951 (NB01006); experiment: MIC by broth microdilution, S. aureus NB01006; conditions: Staphylococcus aureus, ATCC49951, CAMHB, 35° C., 20 hours, read-out: Antibacterial activity (MIC) NB01006
Outline: (§1)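 CAMHB, ~5×10^5 CFU/mL, 2-fold serial dilutions (final DMSO 1%), 35° C, ambient air, 20 h. Read OD600 plus visual check; MIC = lowest conc. with no visible growth, μg/mL.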

[2] = test system: S. aureus NB01006-AVR005, gyrA (S84L), grlA (580F) and grlB (E471K); experiment: microbe, parasite or virus in culture; conditions: Staphylococcus aureus, 20 h, read-out: Antibacterial activity (MIC) NB01006-AVR005
Outline: as §1

[3] = test system: S. aureus NB01080 fluoroquinolone-resistant clinical isolate; experiment: MIC by broth microdilution, S. aureus NB01080; conditions: Staphylococcus aureus, CAMHB, 35° C., 20 hours, read-out: Antibacterial activity (MIC) NB01080
Outline: as §1

[4] = test system: E. faecalis ATCC 29212 (NB04001); experiment: MIC by broth microdilution, E. faecalis NB04001; conditions: Enterococcus faecalis, ATCC29212, CAMHB, 35° C., 20 hours, read-out: Antibacterial activity (MIC) NB04001
Outline: as §1

[5] = test system: S. pneumoniae ATCC 25922 (NB07001); experiment: MIC by broth microdilution, S. pneumoniae NB07001; conditions: Streptococcus pneumoniae, ATCC25922, 20 h, read-out: Antibacterial activity (MIC) NB07001
Outline: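 CLSI broth microdilution in CAMHB, inoculum ~5×10^5 CFU/mL, two-fold compound dilutions at 1% final DMSO. Plates incubated 20 h at 35°C in ambient air; MIC (μg/mL) is the lowest concentration preventing visible growth, confirmed by OD600.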

[6] = test system: E. coli ATCC 25922 (NB27001); experiment: MIC by broth microdilution, E. coli NB27001; conditions: Escherichia coli, ATCC25922, CAMHB, 35° C., 20 hours, read-out: Antibacterial activity (MIC) NB27001
Outline: as §1

[7] = test system: P. aeruginosa NB52019, wild-type PAO1 strain; experiment: MIC by broth microdilution, P. aeruginosa NB52019; conditions: Pseudomonas aeruginosa, CAMHB, 35° C., 20 hours, read-out: Antibacterial activity (MIC) NB52019
Outline: as §1

Row | Structure (SMILES) | MIC [1] [µg/mL] | MIC [2] [µg/mL] | MIC [3] [µg/mL] | MIC [4] [µg/mL] | MIC [5] [µg/mL] | MIC [6] [µg/mL] | MIC [7] [µg/mL]
1 | C[C@H]1COc2c(N3CC[C@@H](C4(N)CC4)C3)c(F)c(N)c3cc(C(=O)O)c(=O)n1c23 [Example 14, (S)-8-amino-10-((R)-3-(1-aminocyclopropyl)pyrrolidin-1-yl)-9-fluoro-3-methyl-5-oxo-2,3-dihydro-5H-[1,4]oxazino[2,3,4-ij]quinoline-6-carboxylic acid hydrochloride salt] | < 1 | 1 to 32 | 1 to 32 | < 1 | < 1 | 1 to 32 | > 32
2 | COc1c(N2CC[C@@H](C3(N)CC3)C2)c2c3c(cc(C(=O)O)c(=O)n3[C@@H](C)CO2)c1N [Example 15, (S)-8-amino-10-((R)-3-(1-aminocyclopropyl)pyrrolidin-1-yl)-9-methoxy-3-methyl-5-oxo-2,3-dihydro-5H-[1,4]oxazino[2,3,4-ij]quinoline-6-carboxylic acid formate salt] | > 32 | > 32 | > 32 | > 32 | 1 to 32 | > 32 | > 32
3 | COc1cc2cc(C(=O)O)c(=O)n3c2c(c1N1CC[C@@H](C2(N)CC2)C1)OC[C@@H]3C [Example 16, (S)-10-((R)-3-(1-aminocyclopropyl)pyrrolidin-1-yl)-9-methoxy-3-methyl-5-oxo-2,3-dihydro-5H-[1,4]oxazino[2,3,4-ij]liquinoline-6-carboxylic acid formate salt] | > 32 | > 32 | > 32 | > 32 | 1 to 32 | > 32 | > 32
4 | C[C@H]1COc2c(N3CC[C@@H](C4(N)CC4)C3)c(C#N)cc3cc(C(=O)O)c(=O)n1c23 [Example 17, (S)-10-((R)-3-(1-aminocyclopropyl)pyrrolidin-1-yl)-9-cyano-3-methyl-5-oxo-2,3-dihydro-5H-[1,4]oxazino[2,3,4-ij]quinoline-6-carboxylic acid trifluoroacetate salt] | < 1 | 1 to 32 | 1 to 32 | < 1 | < 1 | > 32 | > 32
5 | C[C@H]1COc2c(N3CC[C@@H](C4(N)CC4)C3)c(Cl)cc3cc(C(=O)O)c(=O)n1c23 [Example 18, (S)-10-((R)-3-(1-aminocyclopropyl)pyrrolidin-1-yl)-9-chloro-3-methyl-5-oxo-2,3-dihydro-5H-[1,4]oxazino[2,3,4-ij]quinoline-6-carboxylic acid hydrochloride salt] | 1 to 32 | > 32 | 1 to 32 | 1 to 32 | < 1 | > 32 | > 32
6 | C[C@H]1COc2c(N3CC[C@@H](C4(N)CC4)C3)c(F)c(Cl)c3cc(C(=O)O)c(=O)n1c23 [Example 19.1, (S)-10-((R)-3-(1-aminocyclopropyl)pyrrolidin-1-yl)-8-chloro-9-fluoro-3-methyl-5-oxo-2,3-dihydro-5H-[1,4]oxazino[2,3,4-ij]quinoline-6-carboxylic acid formate salt] | < 1 | < 1 | < 1 | < 1 | < 1 | 1 to 32 | > 32
7 | C[C@H](N)[C@@H]1CCN(c2c(F)c(Cl)c3cc(C(=O)O)c(=O)n4c3c2OC[C@@H]4C)C1 [Example 19.2, (S)-10-((R)-3-((S)-1-aminoethyl)pyrrolidin-1-yl)-8-chloro-9-fluoro-3-methyl-5-oxo-2,3-dihydro-5H-[1,4]oxazino[2,3,4-ij]quinoline-6-carboxylic acid] | < 1 | < 1 | < 1 | < 1 | < 1 | < 1 | 1 to 32 (≈ 2.44 to 78.1 µM)
